In publication PMC5218480 (PLoS ONE, 2017):

System: MV-4-11 cells
Experiment: Gene expression microarray analysis (Affymetrix PrimeView) and GSEA
Format: cell-based, human
Set-up: RFU PODN (11730768_x_at) / Fold change /veh PODN (11730768_x_at) / RFU LINC00158 (11744669_a_at) / Fold change /veh LINC00158 (11744669_a_at) / RFU DUSP10 (11751237_a_at) / Fold change /veh DUSP10 (11751237_a_at) / RFU ID3 (11757404_x_at) / Fold change /veh ID3 (11757404_x_at) / RFU PLEKHG5 (11737974_s_at) / Fold change /veh PLEKHG5 (11737974_s_at) / RFU LRRC4B (11730491_at) / Fold change /veh LRRC4B (11730491_at) / RFU GIMAP4 (11747438_a_at) / Fold change /veh GIMAP4 (11747438_a_at) / RFU KRT8 (11758183_x_at) / Fold change /veh KRT8 (11758183_x_at) / RFU CNN1 (11734310_a_at) / Fold change /veh CNN1 (11734310_a_at) / RFU VPS37D (11726825_at) / Fold change /veh VPS37D (11726825_at) / RFU C10orf10 (11716522_x_at) / Fold change /veh C10orf10 (11716522_x_at) / RFU KIR2DL2 /// KIR2DL4 /// KIR2DL5A /// KIR2DL5B /// KIR2DS1 /// KIR2DS2 /// KIR2DS3 /// KIR2DS4 /// KIR3DL3 /// KIR3DL3 /// KIR3DS1 (11738374_at) / Fold change /veh KIR2DL2 /// KIR2DL4 /// KIR2DL5A /// KIR2DL5B /// KIR2DS1 /// KIR2DS2 /// KIR2DS3 /// KIR2DS4 /// KIR3DL3 /// KIR3DL3 /// KIR3DS1 (11738374_at) / RFU C1QL1 (11718748_at) / Fold change /veh C1QL1 (11718748_at) / RFU TMPRSS4 (11747572_a_at) / Fold change /veh TMPRSS4 (11747572_a_at) / RFU HAMP (11756126_x_at) / Fold change /veh HAMP (11756126_x_at) / RFU RNFT2 (11725882_a_at) / Fold change /veh RNFT2 (11725882_a_at) / RFU NR4A2 (11747474_a_at) / Fold change /veh NR4A2 (11747474_a_at) / RFU ABCC12 (11746883_a_at) / Fold change /veh ABCC12 (11746883_a_at) / RFU TMEM136 (11760407_x_at) / Fold change /veh TMEM136 (11760407_x_at) / RFU CLDN22 /// WWC2 (11732394_at) / Fold change /veh CLDN22 /// WWC2 (11732394_at) / RFU HLA-DPB1 (11760878_x_at) / Fold change /veh HLA-DPB1 (11760878_x_at) / RFU SPINT1 (11716480_a_at) / Fold change /veh SPINT1 (11716480_a_at) / RFU GAP43 (11754022_s_at) / Fold change /veh GAP43 (11754022_s_at) / RFU A4GNT (11735810_at) / Fold change /veh A4GNT (11735810_at) / RFU PRB3 (11715151_x_at) / Fold change /veh PRB3 (11715151_x_at) / RFU TUBB4B (11761932_at) / Fold change /veh TUBB4B (11761932_at) / RFU CAPN14 (11732068_a_at) / Fold change /veh CAPN14 (11732068_a_at) / RFU TMCC2 (11721928_a_at) / Fold change /veh TMCC2 (11721928_a_at) / RFU IRGQ (11745062_a_at) / Fold change /veh IRGQ (11745062_a_at) / RFU FAM174B (11720279_a_at) / Fold change /veh FAM174B (11720279_a_at) / RFU TMPRSS4 (11748680_a_at) / Fold change /veh TMPRSS4 (11748680_a_at) / RFU FAM212B (11763350_a_at) / Fold change /veh FAM212B (11763350_a_at) / RFU PLEKHG5 (11743358_a_at) / Fold change /veh PLEKHG5 (11743358_a_at) / RFU ZSCAN30 (11745921_a_at) / Fold change /veh ZSCAN30 (11745921_a_at) / RFU CMKLR1 (11741424_a_at) / Fold change /veh CMKLR1 (11741424_a_at) / RFU LOC101060620 /// MAPK8IP1 (11723275_at) / Fold change /veh LOC101060620 /// MAPK8IP1 (11723275_at) / RFU SPTSSB (11747773_x_at) / Fold change /veh SPTSSB (11747773_x_at) / RFU PRSS12 (11739890_at) / Fold change /veh PRSS12 (11739890_at) / RFU BIN1 (11741810_x_at) / Fold change /veh BIN1 (11741810_x_at) / RFU WNT11 (11732464_a_at) / Fold change /veh WNT11 (11732464_a_at) / RFU C10orf10 (11716521_a_at) / Fold change /veh C10orf10 (11716521_a_at) / RFU C5orf56 (11738089_at) / Fold change /veh C5orf56 (11738089_at) / RFU CYB561 (11721691_x_at) / Fold change /veh CYB561 (11721691_x_at) / RFU ANKRD19P (11752326_a_at) / Fold change /veh ANKRD19P (11752326_a_at) / RFU OR2T12 /// OR2T33 /// OR2T8 (11738714_s_at) / Fold change /veh OR2T12 /// OR2T33 /// OR2T8 (11738714_s_at) / RFU VCAN (11748164_a_at) / Fold change /veh VCAN (11748164_a_at) / RFU JSRP1 (11732532_at) / Fold change /veh JSRP1 (11732532_at) / RFU KRTAP10-11 (11738290_x_at) / Fold change /veh KRTAP10-11 (11738290_x_at) / RFU MYO3A (11730013_a_at) / Fold change /veh MYO3A (11730013_a_at) / RFU EBF3 (11725865_a_at) / Fold change /veh EBF3 (11725865_a_at) / RFU CAMK2N1 (11719241_x_at) / Fold change /veh CAMK2N1 (11719241_x_at) / RFU C5orf56 (11738088_a_at) / Fold change /veh C5orf56 (11738088_a_at) / RFU OLFML3 (11715873_a_at) / Fold change /veh OLFML3 (11715873_a_at) / RFU LOC100653217 /// NTM (11731650_a_at) / Fold change /veh LOC100653217 /// NTM (11731650_a_at) / RFU MAPK11 (11762145_a_at) / Fold change /veh MAPK11 (11762145_a_at) / RFU FIZ1 (11724087_x_at) / Fold change /veh FIZ1 (11724087_x_at) / RFU OASL (11726364_x_at) / Fold change /veh OASL (11726364_x_at) / RFU SOX15 (11748057_x_at) / Fold change /veh SOX15 (11748057_x_at) / RFU CD79A (11719716_a_at) / Fold change /veh CD79A (11719716_a_at) / RFU HIST1H1D (11736915_at) / Fold change /veh HIST1H1D (11736915_at) / RFU CASKIN2 (11723855_a_at) / Fold change /veh CASKIN2 (11723855_a_at) / RFU LOC730098 (11760151_x_at) / Fold change /veh LOC730098 (11760151_x_at) / RFU OR4N2 (11742367_at) / Fold change /veh OR4N2 (11742367_at) / RFU PRRT2 (11749266_a_at) / Fold change /veh PRRT2 (11749266_a_at) / RFU SNX32 (11753110_a_at) / Fold change /veh SNX32 (11753110_a_at) / RFU CDHR5 (11726645_a_at) / Fold change /veh CDHR5 (11726645_a_at) / RFU RCAN1 (11760418_a_at) / Fold change /veh RCAN1 (11760418_a_at) / RFU FAM167A (11723789_a_at) / Fold change /veh FAM167A (11723789_a_at) / RFU FAM26E (11764081_at) / Fold change /veh FAM26E (11764081_at) / RFU ISYNA1 (11749810_s_at) / Fold change /veh ISYNA1 (11749810_s_at) / RFU ACY1 (11761880_at) / Fold change /veh ACY1 (11761880_at) / RFU 11764098_at / Fold change /veh 11764098_at / RFU SAMD14 (11745864_x_at) / Fold change /veh SAMD14 (11745864_x_at) / RFU NPB (11741838_a_at) / Fold change /veh NPB (11741838_a_at) / RFU TMPRSS6 (11731388_a_at) / Fold change /veh TMPRSS6 (11731388_a_at) / RFU KRTAP10-2 (11738614_at) / Fold change /veh KRTAP10-2 (11738614_at) / RFU ARHGAP8 /// PRR5-ARHGAP8 (11727945_x_at) / Fold change /veh ARHGAP8 /// PRR5-ARHGAP8 (11727945_x_at) / RFU KRTAP5-7 /// NADSYN1 (11734609_at) / Fold change /veh KRTAP5-7 /// NADSYN1 (11734609_at) / RFU RASL12 (11751679_a_at) / Fold change /veh RASL12 (11751679_a_at) / RFU CDKN2B (11736163_a_at) / Fold change /veh CDKN2B (11736163_a_at) / RFU PRF1 (11729649_at) / Fold change /veh PRF1 (11729649_at) / RFU, ZNF638 /// ZNF638-IT1 / Fold change vs veh, ZNF638 /// ZNF638-IT1 / RFU, PANK3 / Fold change vs veh, PANK3 / RFU, SH3YL1 / Fold change vs veh, SH3YL1 / RFU, ZEB2 / Fold change vs veh, ZEB2 / RFU, NRIP1 / Fold change vs veh, NRIP1 / RFU, PTTG1IP / Fold change vs veh, PTTG1IP / RFU, CAPN2 / Fold change vs veh, CAPN2 / RFU, MED14 / Fold change vs veh, MED14 / RFU, SNORA58 / Fold change vs veh, SNORA58 / RFU, C1orf63 / Fold change vs veh, C1orf63 / RFU, LRRFIP1 / Fold change vs veh, LRRFIP1 / RFU, NDUFAF7 / Fold change vs veh, NDUFAF7 / RFU, SLC12A2 / Fold change vs veh, SLC12A2 / RFU, IBTK / Fold change vs veh, IBTK / RFU, ESF1 / Fold change vs veh, ESF1 / Fold change vs veh, TMEM50B / RFU, TAOK1 / Fold change vs veh, TAOK1 / RFU, ACBD3 / Fold change vs veh, ACBD3 / RFU, TMA16 / Fold change vs veh, TMA16 / RFU, RWDD3 / Fold change vs veh, RWDD3 / RFU, BCAT1 / Fold change vs veh, BCAT1 / RFU, EDEM3 / Fold change vs veh, EDEM3 / RFU, TMEM33 / Fold change vs veh, TMEM33 / RFU, WDR75 / Fold change vs veh, WDR75 / RFU, AHCTF1 / Fold change vs veh, AHCTF1 / RFU, TFRC / Fold change vs veh, TFRC / RFU, ZDHHC17 / Fold change vs veh, ZDHHC17 / RFU, NOM1 / Fold change vs veh, NOM1 / RFU, ARL8B / Fold change vs veh, ARL8B / RFU, ZBTB11 / Fold change vs veh, ZBTB11 / RFU, TAMM41 / Fold change vs veh, TAMM41 / RFU, KIAA1704 /// LOC100996395 / Fold change vs veh, KIAA1704 /// LOC100996395 / RFU, ING1 / Fold change vs veh, ING1 / RFU, TRMT61B / Fold change vs veh, TRMT61B / RFU, FUBP3 / Fold change vs veh, FUBP3 / RFU, TP53 / Fold change vs veh, TP53 / RFU, TNKS2 / Fold change vs veh, TNKS2 / RFU, ZFP14 / Fold change vs veh, ZFP14 / RFU, ACTR2 / Fold change vs veh, ACTR2 / RFU, PPP3R1 / Fold change vs veh, PPP3R1 / RFU, PIK3R1 / Fold change vs veh, PIK3R1 / RFU, HNRNPA1 / Fold change vs veh, HNRNPA1 / RFU, RNF170 / Fold change vs veh, RNF170 / RFU, ZNF28 / Fold change vs veh, ZNF28 / RFU, RNGTT / Fold change vs veh, RNGTT / RFU, OGT / Fold change vs veh, OGT / RFU, BRD1 / Fold change vs veh, BRD1 / RFU, MARS / Fold change vs veh, MARS / RFU, ZNF655 / Fold change vs veh, ZNF655 / RFU, FAHD1 / Fold change vs veh, FAHD1 / RFU, BDP1 / Fold change vs veh, BDP1 / RFU, LRRCC1 / Fold change vs veh, LRRCC1 / RFU, ARID1A / Fold change vs veh, ARID1A / RFU, ZNF146 / Fold change vs veh, ZNF146 / RFU, ZNF330 / Fold change vs veh, ZNF330 / RFU, GPN3 / Fold change vs veh, GPN3 / RFU, C9orf123 / Fold change vs veh, C9orf123 / RFU, N4BP2L2 / Fold change vs veh, N4BP2L2 / RFU, ARFIP1 / Fold change vs veh, ARFIP1 / RFU, FAM179B / Fold change vs veh, FAM179B / RFU, BCL10 / Fold change vs veh, BCL10 / RFU, UHRF1BP1L / Fold change vs veh, UHRF1BP1L / RFU, BET1 / Fold change vs veh, BET1 / RFU, CNOT2 / Fold change vs veh, CNOT2 / RFU, ZNF268 / Fold change vs veh, ZNF268 / Fold change vs veh, ZNF507 / RFU, DGCR2 / Fold change vs veh, DGCR2 / RFU, WDSUB1 / Fold change vs veh, WDSUB1 / Fold change vs veh, HSP90B1 /// MIR3652 / RFU, ADSS / Fold change vs veh, ADSS / RFU, GK / Fold change vs veh, GK / RFU, ZNF148 / Fold change vs veh, ZNF148 / RFU, TAF9 / Fold change vs veh, TAF9 / RFU, SLC1A5 / Fold change vs veh, SLC1A5 / RFU, SLMO2 / Fold change vs veh, SLMO2 / RFU, ABCC4 / Fold change vs veh, ABCC4 / RFU, LOC101060439 /// RAP1B / Fold change vs veh, LOC101060439 /// RAP1B / RFU, RFX7 / Fold change vs veh, RFX7 / RFU, GTPBP10 / Fold change vs veh, GTPBP10 / RFU, CNEP1R1 / Fold change vs veh, CNEP1R1 / RFU, BIVM-ERCC5 /// ERCC5 / Fold change vs veh, BIVM-ERCC5 /// ERCC5 / RFU, ILF3 / Fold change vs veh, ILF3 / RFU 11762660_at / Fold change /veh 11762660_at / RFU VCAN (11757783_s_at) / Fold change /veh VCAN (11757783_s_at) / RFU DDX43 (11728927_at) / Fold change /veh DDX43 (11728927_at) / RFU KRT8 (11758188_x_at) / Fold change /veh KRT8 (11758188_x_at) / RFU NKD1 (11759106_at) / Fold change /veh NKD1 (11759106_at) / RFU SRD5A1 (11742802_a_at) / Fold change /veh SRD5A1 (11742802_a_at) / RFU TPSAB1 /// TPSB2 (11721975_s_at) / Fold change /veh TPSAB1 /// TPSB2 (11721975_s_at) / RFU GSTM3 (11746129_a_at) / Fold change /veh GSTM3 (11746129_a_at) / RFU IL23R (11737362_x_at) / Fold change /veh IL23R (11737362_x_at) / RFU TMEM51 (11727254_a_at) / Fold change /veh TMEM51 (11727254_a_at) / RFU PIWIL2 (11732686_x_at) / Fold change /veh PIWIL2 (11732686_x_at) / RFU ORM1 (11744905_x_at) / Fold change /veh ORM1 (11744905_x_at) / RFU CCDC152 (11743942_at) / Fold change /veh CCDC152 (11743942_at) / RFU ECM1 (11717891_a_at) / Fold change /veh ECM1 (11717891_a_at) / RFU IL23R (11748794_a_at) / Fold change /veh IL23R (11748794_a_at) / RFU TNFAIP8L3 (11732012_x_at) / Fold change /veh TNFAIP8L3 (11732012_x_at) / RFU MBOAT4 (11741988_at) / Fold change /veh MBOAT4 (11741988_at) / RFU 11764193_at / Fold change /veh 11764193_at / RFU TMEM53 (11763286_at) / Fold change /veh TMEM53 (11763286_at) / RFU MAGEB2 (11727129_at) / Fold change /veh MAGEB2 (11727129_at) / RFU TMEM200A (11744735_a_at) / Fold change /veh TMEM200A (11744735_a_at) / RFU CCDC152 (11751479_a_at) / Fold change /veh CCDC152 (11751479_a_at) / RFU FAM211A (11726209_a_at) / Fold change /veh FAM211A (11726209_a_at) / RFU RGS16 (11746705_a_at) / Fold change /veh RGS16 (11746705_a_at) / RFU VCAN (11755009_s_at) / Fold change /veh VCAN (11755009_s_at) / RFU RHOB (11743442_s_at) / Fold change /veh RHOB (11743442_s_at) / RFU RGS16 (11720943_a_at) / Fold change /veh RGS16 (11720943_a_at) / RFU RGS16 (11720944_at) / Fold change /veh RGS16 (11720944_at) / RFU, VPS4B / Fold change vs veh, VPS4B / RFU, CREB1 / Fold change vs veh, CREB1 / RFU, DNAJC13 / Fold change vs veh, DNAJC13 / RFU, GNAQ / Fold change vs veh, GNAQ / RFU, CDK5R1 / Fold change vs veh, CDK5R1 / RFU, ZRANB3 / Fold change vs veh, ZRANB3 / RFU, CUL4A / Fold change vs veh, CUL4A / RFU, CCNY / Fold change vs veh, CCNY / RFU, UFL1 / Fold change vs veh, UFL1 / RFU, COG3 / Fold change vs veh, COG3 / RFU, DIAPH2 / Fold change vs veh, DIAPH2 / RFU, SKA2 / Fold change vs veh, SKA2 / RFU, AFF3 / Fold change vs veh, AFF3 / RFU, LMF1 / Fold change vs veh, LMF1 / RFU, IPO11 / Fold change vs veh, IPO11 / RFU, DFFB / Fold change vs veh, DFFB / RFU, FOXP1 / Fold change vs veh, FOXP1 / RFU, CARD8 / Fold change vs veh, CARD8 / RFU, STRN3 / Fold change vs veh, STRN3 / RFU, ADK / Fold change vs veh, ADK / RFU, RASSF2 / Fold change vs veh, RASSF2 / RFU, WIPF1 / Fold change vs veh, WIPF1 / RFU, LARP1B / Fold change vs veh, LARP1B / RFU, RASA1 / Fold change vs veh, RASA1 / RFU, RB1 / Fold change vs veh, RB1 / RFU, PPFIA1 / Fold change vs veh, PPFIA1 / RFU, MAT2A / Fold change vs veh, MAT2A / RFU, CCT5 / Fold change vs veh, CCT5 / RFU, WDR92 / Fold change vs veh, WDR92 / RFU, CUX1 / Fold change vs veh, CUX1 / RFU, TTC7A / Fold change vs veh, TTC7A / RFU, TMEM135 / Fold change vs veh, TMEM135 / RFU, DEPTOR / Fold change vs veh, DEPTOR / RFU, CPM / Fold change vs veh, CPM / RFU, DNAJB6 / Fold change vs veh, DNAJB6 / RFU, CACNA2D3 / Fold change vs veh, CACNA2D3 / RFU, DTX4 / Fold change vs veh, DTX4 / RFU, TFCP2 / Fold change vs veh, TFCP2 / RFU, GMCL1 /// GMCL1P1 / Fold change vs veh, GMCL1 /// GMCL1P1 / RFU, AEBP2 / Fold change vs veh, AEBP2 / RFU, SNHG1 /// SNORD22 /// SNORD25 /// SNORD26 /// SNORD27 /// SNORD28 /// SNORD29 /// SNORD31 / Fold change vs veh, SNHG1 /// SNORD22 /// SNORD25 /// SNORD26 /// SNORD27 /// SNORD28 /// SNORD29 /// SNORD31 / Fold change (Aza/veh), C12orf56 (ProbeSet 11735607_a_at) / Fold change (ACY-1035/veh), C12orf56 (ProbeSet 11735607_a_at) / Fold change (Aza/veh), FGFR1OP (ProbeSet 11751329_s_at) / Fold change (ACY-1035/veh), FGFR1OP (ProbeSet 11751329_s_at) / Fold change (Aza/veh), VPS36 (ProbeSet 11739960_a_at) / Fold change (ACY-1035/veh), VPS36 (ProbeSet 11739960_a_at) / RFU SYPL1 (11715823_x_at) / Fold change /veh SYPL1 (11715823_x_at) / RFU IGFBP7 (11715501_s_at) / Fold change /veh IGFBP7 (11715501_s_at) / RFU REEP3 (11722064_at) / Fold change /veh REEP3 (11722064_at) / RFU IGLL1 (11728026_x_at) / Fold change /veh IGLL1 (11728026_x_at): dose or concentration left out as unconfirmed
Conditions: ProbeSet 11720566_at; LIST D

Compound: Nc1ccc(-c2cccs2)cc1NC(=O)c1ccc2c(c1)cc(C1CC1)n2CCN1CCOCC1 [ACY-1035]
- Fold change vs veh, BCAT1: 0.85
